Assay: Phosphodiesterase assay using fluorescence polarization with various metallic ion salts
Type: binding
Conditions: FIG. 1B, 50 nM TAMRA-cGMP with PDE, 10 mM metal salt in 100 mM NaAc/HAc buffer pH 5.2 with 10 mM ZnSO4
Protocol: After one hour of incubation, the fluorescence polarization was measured using Analyst reader (Molecular Devices).

| SMILES | fluorescence signal, indicative of binding to the PDE product |
| --- | --- |
| [Cl][Ga]([Cl])[Cl] [GaCl3] | able to show fluorescence signal |
| [Cl-].[Cl-].[Cl-].[In+3] [InCl3, indium chloride] | able to show fluorescence signal |
